# Laboratory results from paper PMC4014704, “β-Boomerang Antimicrobial and Antiendotoxic Peptides: Lipidation and Disulfide Bond Effects on Activity and Structure” (Pharmaceuticals, 2014).
# Peptide text beside a SMILES is read from it.
# Columns and labels:
# [1] = buffers
# Description: (§1) In addition, incorporation of disulfide bridges in AMPs may stabilize conformations and enhance cationicity and hydrophobicity required for enhanced activity. […] Residue Ile10 was chosen for Cys replacement since this residue is located at the exposed face of the β-strand of the YI12WF structure (Figure 1).
# The solution conformations of YI13C, C4YI13C peptides were examined in free solution using two-dimensional ^1H-^1H NOESY and TOCSY experiments.
# [2] = Reverse phase HPLC retention time (hydrophobicity); format: physicochemical; design: unit not given beside the values; conditions: C18 column (300 Å pore size, 5 μm particle size), linear gradient acetonitrile/water, higher Rt taken as more hydrophobic
# Description: Materials: LPS of E. coli 0111:B4, FITC-LPS of E. coli 055:B5, acrylamide, NPN (1-N-phenylnaphthylamine) were purchased from Sigma (Saint Louis, MO, USA). All bacterial strains were obtained from the American Type Culture Collection (Manassas, VA, USA). Designed peptides were synthesized commercially by GL Biochem (Shanghai, China) and further purified by a reverse phase HPLC (Waters), using a C18 column (300 Å pore size, 5 μm particle size). The dimeric variants of β-boomerang lipopeptides were treated with 20% DMSO for 18 hours and the oxidized peptides were further purified by HPLC. A linear gradient of acetonitrile/water mixture was used for the purification and fractions eluting with higher purity were collected and freeze-dried.
# as §1
# B.subtilis (Lab strain) = test: Antibacterial assay (MIC); format: cell-based; conditions: 10 mM phosphate buffer pH 6.8, 3 h 37 °C, streaked on Mueller-Hinton agar
# Experimental: (§2) Antibacterial assay: The minimum inhibitory concentration (MIC) of the designed peptides was determined against four Gram-negative strains (E. coli, P. aeruginosa ATCC 27853, K. pneumoniae ATCC 13883, S. enterica ATCC 14028) and four Gram-positive strains (B. subtilis, S. aureus ATCC 25923, S. pyogenes ATCC 19615 and E. faecalis ATCC 29212). In brief, mid logarithmic phase of overnight grown bacterial cultures were obtained in LB broth and adjusted to OD600 0.2 in 10 mM phosphate buffer, pH 6.8. About 50 μL of these cells were added to equal volume of designed peptides at two-fold dilutions in 96-well sterile polypropylene plates followed by incubation for 3hrs at 37 °C. Aliquots of the above titrated wells were streaked onto Mueller-Hinton agar plates and the concentration at which no visible bacterial growth was observed considered as the MIC value of the peptide.
# E.coli (Lab strain) = test: Antibacterial assay (MIC); format: cell-based; conditions: 10 mM phosphate buffer pH 6.8, 3 h 37 °C, streaked on Mueller-Hinton agar, no visible growth
# Experimental: as §2
# E.faecalis (ATCC 29212) = test: Antibacterial assay (MIC); format: cell-based; conditions: 10 mM phosphate buffer pH 6.8, 3 h 37 °C, streaked on Mueller-Hinton agar
# Experimental: as §2
# [3] = system: K. pneumoniae (ATCC 13883); test: Antibacterial assay (MIC); format: cell-based; conditions: 10 mM phosphate buffer pH 6.8, 3 h 37 °C, streaked on Mueller-Hinton agar
# Experimental: as §2
# [4] = system: P.aeruginosa (ATCC 27853); test: Antibacterial assay (MIC); format: cell-based; conditions: 10 mM phosphate buffer pH 6.8, 3 h 37 °C, streaked on Mueller-Hinton agar
# Experimental: as §2
# S.aureus (ATCC 25923) = test: Antibacterial assay (MIC); format: cell-based; conditions: 10 mM phosphate buffer pH 6.8, 3 h 37 °C, streaked on Mueller-Hinton agar
# Experimental: as §2
# S.enterica (ATCC 14028) = test: Antibacterial assay (MIC); format: cell-based; conditions: 10 mM phosphate buffer pH 6.8, 3 h 37 °C, streaked on Mueller-Hinton agar
# Experimental: as §2
# S.pyogenes (ATCC 19615) = test: Antibacterial assay (MIC); format: cell-based; conditions: 10 mM phosphate buffer pH 6.8, 3 h 37 °C, streaked on Mueller-Hinton agar
# Experimental: as §2
# red blood cells = conditions: mouse RBC ~4% (v/v) in PBS pH 7.0, 1 h, OD540, 1% Triton-X = positive control
# Experimental: Hemolytic assay: Blood was collected from healthy mice in a tube containing EDTA. Cells with EDTA were centrifuged at 800 g for 10 min, to remove the buffy plasma coat layer, and washed three times in PBS (35 mM phosphate buffer, 150 mM NaCl, pH 7.0). 50 μL of RBC solution was added to equal volume of two-fold dilution of the peptides in 96-well micro titer plates and incubated for one hour. The final erythrocyte concentration estimated to be ~4% (v/v). After one hour, the mixture was centrifuged and the release of hemoglobin in the supernatant was determined spectrophotometrically at OD540. Buffer and 1% Triton-X in the place of peptides used as negative control and positive control, respectively. The percentage of hemolysis was calculated using the following method: Percentage of hemolysis = (OD peptide − OD buffer)/(OD Triton-X-OD buffer) × 100
# LPS (endotoxin) = test: LPS neutralization assay (chromogenic LAL kit); format: biochemical; conditions: 10 μM peptide concentration
# Experimental: LPS neutralization assay: LAL chromogenic kit (QCL 100 Cambrex, Walkersville, MD, USA) was used to determine endotoxin neutralization of the designed peptides following protocol of the vendor. LPS in Gram negative bacteria activates a proenzyme in limulus amoebocyte lysate (LAL). This activated enzyme in turn catalytically release a colored product pNA from the colorless substrate Ac-Ile-Glu-Ala-Arg-pNA which is detected spectrophotometrically at OD410. All peptides were dissolved in the pyrogen-free water supplied with the kit and pH was adjusted to 7.0 with 1N HCl or 1N NaOH (which is prepared in pyrogen-free water). The increasing concentrations of the peptides were incubated with three different concentrations of endotoxins, i.e., at 0.4, 0.8 and 1.0 endotoxin units (EU) in a total volume of 50 μL for 30 minutes at 37 °C. About 50 μL of LAL reagent was added to peptide-LPS complex and further incubated for 10 minutes followed by addition of 100 μL substrate. After incubation of six minutes for the reaction, the release of colored product was recorded at OD410. Water in the place of peptides served as negative control (blank) that is considered as 0% inhibition and percentage of LPS neutralization was calculated by: % of LPS neutralization = [(OD blank − OD peptide)/OD blank] × 100
# LPS micelles [5] = test: Dynamic light scattering of LPS micelles; design: species or system E. coli 0111:B4; conditions: DLS, 0.5 μM LPS, LPS:peptide 1:4; LPS alone 814 nm
# Experimental: Dynamic light scattering measurements: LPS forms micelles of large sizes, which with the addition of increasing concentration of peptides, dissociates to smaller sizes. DLS measurements were made for 0.5 μM LPS and then with LPS: Peptide ratios of 1:2 and 1:4. The scattering was measured with Dynamic Light Scattering software provided with the instrument (Brookhaven Instruments Corp., Holtsville, NY, USA) and the scattering data was analyzed with CONTIN method.
# LPS micelles [6] = test: Isothermal titration calorimetry; format: binding, E. coli 0111:B4; conditions: ITC
# Experimental: Isothermal titration calorimetry: Binding of designed peptides with LPS micelles was determined using isothermal titration calorimetry in VP-ITC micro calorimeter (Microcal Inc, Northampton, MA, USA). Peptides and LPS samples were dissolved in 10 mM phosphate buffer, pH 7.0 and filtered. LPS at a concentration of 10 μM was loaded into the sample cell and the reference cell was filled with the same buffer. The syringe was filled with 1mM peptide solution. Typically 30 injections of 3.5 μL of the peptides were made into the sample cell at 25 °C. Sample cell was stirred continuously at 300 rpm. Raw data were obtained and analyzed using single site binding model in Microcal Origin 5.0 software. Association constant (Ka) and enthalpy change (ΔH) were directly determined from ITC profiles. Dissociation constant was calculated from Kd = 1/Ka. ΔG and TΔS were estimated from the fundamental equations of thermodynamics, ΔG = −RTlnKa and TΔS = (ΔH − ΔG), respectively.
compound,measurement,setting,value
"CCCCCCCC(=O)N[C@@H](Cc1ccc(O)cc1)C(=O)N[C@H](C(=O)N[C@@H](CC(C)C)C(=O)N[C@@H](Cc1c[nH]c2ccccc12)C(=O)N[C@@H](CCCCN)C(=O)N[C@@H](CCCNC(=N)N)C(=O)N[C@@H](CCCCN)C(=O)N[C@@H](CCCNC(=N)N)C(=O)N[C@@H](Cc1ccccc1)C(=O)N[C@@H](CSSC[C@H](NC(=O)[C@H](Cc1ccccc1)NC(=O)[C@H](CCCNC(=N)N)NC(=O)[C@H](CCCCN)NC(=O)[C@H](CCCNC(=N)N)NC(=O)[C@H](CCCCN)NC(=O)[C@H](Cc1c[nH]c2ccccc12)NC(=O)[C@H](CC(C)C)NC(=O)[C@@H](NC(=O)[C@H](Cc1ccc(O)cc1)NC(=O)CCCCCCC)C(C)C)C(=O)N[C@@H](Cc1ccccc1)C(=O)N[C@H](C(N)=O)[C@@H](C)CC)C(=O)N[C@@H](Cc1ccccc1)C(=O)N[C@H](C(N)=O)[C@@H](C)CC)C(C)C [C8YI12WFC] (HELM PEPTIDE1{[CCCCCCCC(=O)[*:2]].Y.V.L.W.K.R.K.R.F.C.F.I.[am]}|PEPTIDE2{[CCCCCCCC(=O)[*:2]].Y.V.L.W.K.R.K.R.F.C.F.I.[am]}$PEPTIDE1,PEPTIDE2,11:R3-11:R3$$$V2.0)",Solubility in buffers (in words),[1],remained insoluble in buffers
"CCCC(=O)N[C@@H](Cc1ccc(O)cc1)C(=O)N[C@H](C(=O)N[C@@H](CC(C)C)C(=O)N[C@@H](Cc1c[nH]c2ccccc12)C(=O)N[C@@H](CCCCN)C(=O)N[C@@H](CCCNC(=N)N)C(=O)N[C@@H](CCCCN)C(=O)N[C@@H](CCCNC(=N)N)C(=O)N[C@@H](Cc1ccccc1)C(=O)N[C@@H](CSSC[C@H](NC(=O)[C@H](Cc1ccccc1)NC(=O)[C@H](CCCNC(=N)N)NC(=O)[C@H](CCCCN)NC(=O)[C@H](CCCNC(=N)N)NC(=O)[C@H](CCCCN)NC(=O)[C@H](Cc1c[nH]c2ccccc12)NC(=O)[C@H](CC(C)C)NC(=O)[C@@H](NC(=O)[C@H](Cc1ccc(O)cc1)NC(=O)CCC)C(C)C)C(=O)N[C@@H](Cc1ccccc1)C(=O)N[C@H](C(N)=O)[C@@H](C)CC)C(=O)N[C@@H](Cc1ccccc1)C(=O)N[C@H](C(N)=O)[C@@H](C)CC)C(C)C [C4YI12WFC] (HELM PEPTIDE1{[CCCC(=O)[*:2]].Y.V.L.W.K.R.K.R.F.C.F.I.[am]}|PEPTIDE2{[CCCC(=O)[*:2]].Y.V.L.W.K.R.K.R.F.C.F.I.[am]}$PEPTIDE1,PEPTIDE2,11:R3-11:R3$$$V2.0)",Solubility in buffers (in words),[1],remained insoluble in buffers
CCCC(=O)N[C@@H](Cc1ccc(O)cc1)C(=O)N[C@H](C(=O)N[C@@H](CC(C)C)C(=O)N[C@@H](Cc1c[nH]c2ccccc12)C(=O)N[C@@H](CCCCN)C(=O)N[C@@H](CCCNC(=N)N)C(=O)N[C@@H](CCCCN)C(=O)N[C@@H](CCCNC(=N)N)C(=O)N[C@@H](Cc1ccccc1)C(=O)N[C@H](C(=O)N[C@@H](Cc1ccccc1)C(=O)N[C@H](C(N)=O)[C@@H](C)CC)[C@@H](C)CC)C(C)C [C4YI12WF] (HELM PEPTIDE1{[CCCC(=O)[*:2]].Y.V.L.W.K.R.K.R.F.I.F.I.[am]}$$$$V2.0),Solubility in buffers (in words),[1],remained insoluble in buffers
CCCCCCCC(=O)N[C@@H](Cc1ccc(O)cc1)C(=O)N[C@H](C(=O)N[C@@H](CC(C)C)C(=O)N[C@@H](Cc1c[nH]c2ccccc12)C(=O)N[C@@H](CCCCN)C(=O)N[C@@H](CCCNC(=N)N)C(=O)N[C@@H](CCCCN)C(=O)N[C@@H](CCCNC(=N)N)C(=O)N[C@@H](Cc1ccccc1)C(=O)N[C@H](C(=O)N[C@@H](Cc1ccccc1)C(=O)N[C@H](C(N)=O)[C@@H](C)CC)[C@@H](C)CC)C(C)C [C8YI12WF] (HELM PEPTIDE1{[CCCCCCCC(=O)[*:2]].Y.V.L.W.K.R.K.R.F.I.F.I.[am]}$$$$V2.0),Solubility in buffers (in words),[1],remained insoluble in buffers
"CC[C@H](C)[C@H](NC(=O)[C@H](Cc1ccccc1)NC(=O)[C@H](CSSC[C@H](NC(=O)[C@H](Cc1ccccc1)NC(=O)[C@H](CCCCN)NC(=O)[C@H](CCCNC(=N)N)NC(=O)[C@H](CCCCN)NC(=O)[C@H](CCCNC(=N)N)NC(=O)[C@H](CCCCN)NC(=O)[C@H](Cc1c[nH]c2ccccc12)NC(=O)[C@H](CC(C)C)NC(=O)[C@@H](NC(=O)[C@@H](N)Cc1ccc(O)cc1)C(C)C)C(=O)N[C@@H](Cc1ccccc1)C(=O)N[C@H](C(N)=O)[C@@H](C)CC)NC(=O)[C@H](Cc1ccccc1)NC(=O)[C@H](CCCCN)NC(=O)[C@H](CCCNC(=N)N)NC(=O)[C@H](CCCCN)NC(=O)[C@H](CCCNC(=N)N)NC(=O)[C@H](CCCCN)NC(=O)[C@H](Cc1c[nH]c2ccccc12)NC(=O)[C@H](CC(C)C)NC(=O)[C@@H](NC(=O)[C@@H](N)Cc1ccc(O)cc1)C(C)C)C(N)=O [YI13C] (HELM PEPTIDE1{Y.V.L.W.K.R.K.R.K.F.C.F.I.[am]}|PEPTIDE2{Y.V.L.W.K.R.K.R.K.F.C.F.I.[am]}$PEPTIDE1,PEPTIDE2,11:R3-11:R3$$$V2.0)",Retention time (Rt),[2],27.48
same,Minimum inhibitory concentration (MIC),B.subtilis (Lab strain),20 µM
same,Minimum inhibitory concentration (MIC),E.coli (Lab strain),12.5 µM
same,Minimum inhibitory concentration (MIC),E.faecalis (ATCC 29212),50 µM
same,Minimum inhibitory concentration (MIC),[3],25 µM
same,Minimum inhibitory concentration (MIC),[4],20 µM
same,Minimum inhibitory concentration (MIC),S.aureus (ATCC 25923),20 µM
same,Minimum inhibitory concentration (MIC),S.enterica (ATCC 14028),50 µM
same,Minimum inhibitory concentration (MIC),S.pyogenes (ATCC 19615),50 µM
same,% of hemolysis at 50 μM peptide concentration,red blood cells,21.5%
same,LPS neutralization (in words),LPS (endotoxin),neutralization activity equal to acylated analogs
same,Diameter of LPS aggregates,LPS micelles [5],291 nm
same,Ka,"LPS micelles [6]; 1 mM peptide into 10 μM LPS, 10 mM phosphate buffer pH 7.0, 25 °C, single site binding model",4.2 µM⁻¹
same,Kd,"LPS micelles [6]; LPS micelles, pH 7.0, 25 °C, Kd = 1/Ka",230 nM
